Measured values reported in PMC11435217, “In Vitro Studies of Genistein Lipophilic Derivatives as Potential UV Radiation Protectors” (Pharmaceuticals, 2024).
Like-named read-outs stand apart in the source and are kept apart here.

Legend:
[1] = system: NHDF (normal human dermal fibroblasts); assay: Determination of EC50 values, MTS assay, NHDF; format: cell-based; settings: read-out: EC50 (±SE)
Description: (§1) NHDFs were purchased from Lonza Group Ltd.—Lonza Verviers (Verviers, Belgium), and the human malignant melanoma (Me45) cell line was obtained from the Maria Skłodowska-Curie Memorial Cancer Center and National Institute of Oncology Branch Gliwice, Poland. […] During the culturing periods, cells were passaged before confluency reached 80% in culture flasks and washed regularly with PBS.
(§2) The EC50 values of genistein and its derivatives for both cell lines were determined using the MTS assay (Cell Titer 96 AQueous One Solution Cell Proliferation Assay, Promega, Madison, WI, USA). Cells were seeded in 96-well plates (5 × 10^3 cells/well) and incubated for 24 h at 37 °C in 5% CO2. Subsequently, the cells were treated with twelve concentrations of each compound ranging from 1–100 µM for 48 h at 37 °C in 5% CO2. Afterwards, the medium, including the investigated compounds, was removed from all wells and replaced with PBS. In total, 20 µL of MTS was added to each well. Plates were then incubated for 2 h at 37 °C in 5% CO2. The absorbance was measured at λ = 490 nm using an Epoch microplate reader (BioTek, Winooski, VT, USA). EC50 values were calculated using Matlab software (Matlab R2022a, MathWorks, Natick, MA, USA).

[2] = system: Me45 (human malignant melanoma cell line); assay: Determination of EC50 values, MTS assay, Me45; format: cell-based; settings: read-out: EC50 (±SE)
Description: as §1, §2

Lipophilicity (Log P) = format: physicochemical
Text: Table 2 Genistein and its derivatives investigated in the study. | column: Log P

[3] = Protective potential against UV irradiation, MTS assay, Me45; format: cell-based; settings: human
Description: Cells from each cell line were seeded in three groups (0, 24, and 48 h) in 96-well plates (5 × 10^3 cells/well) and incubated for 24 h at 37 °C in 5% CO2. Afterwards, the medium in all wells was removed, and cells were treated with 5 µM of genistein, 4′-L-Gen, W-Bn-Gen, or W5-Gen. The chemicals added to the 0 h time point plates were dissolved in PBS. DMEM was used to prepare the chemical solutions for the 24- and 48-h plates.
After incubation, half of the wells on each plate were irradiated with UVC 2 kJ/m^2 in a Crosslinker CL-1000 UV (UVP) device (Ultra-Violet Products Ltd., Cambridge, UK). The MTS assay was performed immediately after irradiation for 0 h plates and after 24 and 48 h of incubation for the other two time points. Before conducting the MTS test, the medium in the 24 and 48 h plates was discarded and replaced with PBS.

Me45 cells [4] = assay: Cell cycle analysis (flow cytometry, PI), Me45; format: cell-based, human; settings: 5 µM, 48 h, not exposed to UV
Description: (§3) Cells from both cell lines were seeded in 12-well plates (2.5 × 10^4 cells/well) and incubated for 24 h at 37 °C in 5% CO2. The medium in the wells was replaced with fresh DMEM. Cells were treated with 5 µM of genistein, 4′-L-Gen, W5-Gen, or WBn-Gen for 48 h. Medium containing the test substances was removed, and the cells were collected by trypsinization (followed by neutralization of trypsin with medium) in Eppendorf tubes. Tubes were centrifuged (2000 rpm, 3 min), and the supernatant was removed. Subsequently, the fixation of cells in frozen 96% ethanol took place. The ethanol was removed, and cells were washed twice in PBS. Cells were suspended in tubes using 50 µL of […] RNase and then incubated for 15 min at room temperature. Cells were stained with […] propidium iodide solution in PBS and incubated for 20 min at room temperature. Directly before flow cytometry analysis, cells were agitated on a vortex mixer. Cell cycle analysis was performed using a BD FACS Canto flow cytometer, which counted 10,000 cells from every probe. The number of cells in each cell cycle phase was counted by measuring the […] intensity using Diva software (Bd FACSDiva v9.0, Becton Dickinson, Franklin Lakes, NJ, USA).

NHDFs [5] = assay: Genotoxicity, micronucleus (MN) assay, NHDF; format: cell-based, human; settings: 5 µM, 48 h
Description: (§4) Both cell types were seeded in 6-well plates (2.5 × 10^4 cells/well) and incubated for 24 h at 37 °C in 5% CO2. After incubation, the medium in the wells was changed to 5 µM solutions of genistein, 4′-L-Gen, W-Bn-Gen, or W5-Gen in DMEM and incubated for 1 h at 37 °C in 5% CO2. Half of the treated cells were irradiated, as described above. Afterwards, all the cells were treated with […] cytochalasin B and incubated for 48 h at 37 °C in 5% CO2. Subsequently, cells from each well were trypsinized, washed twice in PBS, and mixed with frosted (−20 °C) Carnoy’s solution (methanol: acetic acid, v/v 3:1). After 2 h, 50 µL of each suspension was placed on a microscopic slide and dried. Before microscopic analysis, slides were stained with 2 µg/mL DAPI (dissolved in DMSO) and covered with cover glasses. Slides were observed using a fluorescent microscope (Zeiss Axio Imager. M1 with EC Plan- NEOFLUAR 40× objective, Zeiss, Oberkochen, Germany). A total of 500 cells on each slide were counted, taking into account binucleated, binucleated with MN, mononucleated, and apoptotic cells. The NDI was calculated using a modified method by Eastmond and Tucker (1989) according to the following Equation (2):(2) NDI=MNu+2(Bnu+BNuMN)/∑cells where MNu is the number of cells with one nucleus, BNu is the number of binucleated cells, and BNuMN is the number of binucleated cells with MN.

Me45 cells [6] = assay: Genotoxicity, micronucleus (MN) assay, Me45; format: cell-based, human; settings: 5 µM, 48 h, exposed and not exposed to UV radiation
Description: as §4

[7] = system: estrogen receptors ERα and ERβ; settings: cited from earlier work
NHDFs [8] = assay: Cell cycle analysis (flow cytometry, PI), NHDF; format: cell-based, human; settings: 5 µM, 48 h, not exposed to UV
Description: as §3

[9] = 48 h treatment, 1–100 µM, concentration causing 50% toxicity
[10] = Me45, 48 h treatment, 1–100 µM, concentration causing 50% toxicity

CCCCCCCCCCCC(=O)Oc1ccc(-c2coc3cc(O)cc(O)c3c2=O)cc1 [4′-L-Gen, 4′-genistein dodecanate]
EC50 ([1]; 48 h): 6.5 µM | EC50 ([2]; 48 h): 60.5 µM | logP (Lipophilicity (Log P)): 5.71 | mortality at 0 h, 5 µM [3]: ~10% | viability at 48 h, 5 µM ([3]; Me45, 5 µM, after 48 h, both exposed and not exposed to UV radiation, read-out: viability of treated cells much lower than in the control samples): ~50% | suppression of the G1 phase, ranking (in words) (Me45 cells [4]): weakest effect

CCCCCOC(=O)Oc1cc(O)c2c(=O)c(-c3ccc(O)cc3)coc2c1 [Compound W5-Gen, n-pentyl-7-O-genistein carbonate]
EC50 [1, 9]: 5.6 µM | EC50 [2, 10]: 92.2 µM | logP (Lipophilicity (Log P)): 3.96

O=c1c(-c2ccc(O)cc2)coc2cc(O)cc(O)c12 [Gen, Genistein]
EC50 ([1]; 48 h): 8.6 µM | EC50 ([2]; 48 h): 78.2 µM | logP (Lipophilicity (Log P); method not stated, read-out: Log P): 1.74 | mortality at 0 h, 5 µM ([3]; Me45, 5 µM, shortest incubation (first time point, before the 24 h reading), read-out: mortality compared to control untreated cells): 50% | effect on number of cells with MN (in words) (NHDFs [5]; NHDF): decreased the number of cells with MN | effect on number of cells with MN (in words) (Me45 cells [6]): increases the number of cells with MN | suppression of the G1 phase, ranking (in words) (Me45 cells [4]): strongest effect | binding to ERβ versus ERα, times more strongly [7]: 20–30 times

O=C(OCc1ccccc1)Oc1cc(O)c2c(=O)c(-c3ccc(O)cc3)coc2c1 [WBn-Gen, bezyl-7-O-genistein carbonate]
EC50 [1, 9]: 6 µM | EC50 [2, 10]: 71.2 µM | logP (Lipophilicity (Log P)): 4.04 | DNA damage (percentage of binucleated cells with MN) (NHDFs [5]; human): 10.5–11% | suppression of the cell cycle in the G2/M phase, cells compared to the controls (NHDFs [8]): 6%
